# Several values for one entry are separate records, joined by “and”; a condition that tells them apart may be missing. Identical values can stand only once.
# How the values were obtained:
# [1] = Metabolic stability in rat liver microsomes (RLMs); conditions: rat, microsomes
# [2] = Passive artificial membrane permeability (PAMPA); conditions: for PAMPA permeability: % permeability: 50 μM, 12–18 h, acceptor concentration relative to equilibrium; for Papp at 50 μM / Permeability% Average / Permeability% R1 / Permeability% R3: PAMPA; for Papp at 50 μM: pH 7.4; for Permeability% Average: average of R1-R3; for Permeability% R1: replicate R1; for Permeability% R1 / Permeability% R3: TIC of top well sample relative to sample at theoretical equilibrium; for Permeability% R3: replicate R3
# porcine pepsin = molecular target: T1, porcine pepsin (Sus scrofa, UniProt P00791); assay: Peptide stability in simulated gastric fluid (SGF); type: in vitro ADME; conditions: for SGF stability, Residual peptide Average / SGF stability, Residual peptide: after 8 h vs 0 h (TIC); for SGF stability, Residual peptide Average: average of R1-R3; for SGF stability, Residual peptide: single replicates R1-R3; for remaining at 8 h: simulated gi fluid, 37 °C, pH 1.2, read-out: Proteolytic stability: SGF (8 h) % remaining
# T1 construct: 0.32 g of porcine pepsin (Sigma-Aldrich, P7125) was dissolved under gentle agitation; purchased Sigma-Aldrich P7125
# T1 sequence (P00791 60-385): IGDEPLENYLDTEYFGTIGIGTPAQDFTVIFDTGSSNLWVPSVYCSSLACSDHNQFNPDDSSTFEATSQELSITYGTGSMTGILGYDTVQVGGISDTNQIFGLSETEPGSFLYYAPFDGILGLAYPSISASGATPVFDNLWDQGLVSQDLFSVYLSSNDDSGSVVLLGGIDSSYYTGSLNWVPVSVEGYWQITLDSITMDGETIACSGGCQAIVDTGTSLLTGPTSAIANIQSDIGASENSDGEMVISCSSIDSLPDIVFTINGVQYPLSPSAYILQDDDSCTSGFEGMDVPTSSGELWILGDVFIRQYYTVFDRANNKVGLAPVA
# Summary of the method: (§1)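 Peptide from a 1 mM DMSO stock was added to fluid pre-warmed at 37 °C. SGF was pH 1.2 NaCl with porcine pepsin (0.32 g per 100 ml), and SIF was pH 6.8 potassium phosphate with porcine pancreatin (1 g per 100 ml). Supernatant peptide was quantified by LC–MS, with residual expressed as T1/T0.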
# rat α-thrombin = molecular target: T2, rat α-thrombin (Rattus norvegicus, UniProt P18292); assay: Protease inhibition, Ki for rat α-thrombin (fluorogenic substrate Z-Gly-Gly-Arg-AMC); type: biochemical; conditions: replicates R1-R3
# T2 construct: rat α-thrombin (Molecular Innovations) were used at final concentrations of 2 nM and 3 nM; purchased Molecular Innovations
# Summary of the method: (§2)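 Ki derived through Cheng–Prusoff from IC50s (four-parameter logistic fit) against activity of peptide-free controls. Product fluorescence was read every 3 min over 30 min at 25 °C, substrate Z-Gly-Gly-Arg-AMC at 50 μM. Enzyme was 2 nM human or 3 nM rat α-thrombin, pH 7.4 buffer.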
# [3] = Peptide stability in simulated intestinal fluid (SIF); type: in vitro ADME, porcine; conditions: simulated gi fluid; 8 h, 37 °C, pH 6.8; read-out: Proteolytic stability: SIF (8 h) % remaining
# Summary of the method: as §1
# porcine pancreatin = assay: as above; type: in vitro ADME; conditions: after 8 h vs 0 h (TIC); for SIF stability, Residual peptide Average: average of R1-R3; for SIF stability, Residual peptide: single replicates R1-R3
# Summary of the method: as §1
# human α-thrombin = human α-thrombin (Homo sapiens, UniProt P00734); assay: Protease inhibition, Ki for human α-thrombin (fluorogenic substrate Z-Gly-Gly-Arg-AMC); type: biochemical; conditions: replicates R1-R3
# Summary of the method: as §2
# [4] = CL (ul/min/mg protein) R1, RLM CL, replicate R1
# [5] = CL (ul/min/mg protein) R2, RLM CL, replicate R2
# [6] = CL (ul/min/mg protein) R3, RLM CL, replicate R3
# [7] = Half Life (min) R1, RLM metabolic stability, replicate R1, 0-60 min
# [8] = Half Life (min) R2, RLM metabolic stability, replicate R2, 0-60 min
# [9] = Half Life (min) R3, RLM metabolic stability, replicate R3, 0-60 min
# [10] = Metabolic stability: Half life T1/2 (min), RLMs, mean and SD, three measurements
# [11] = Metabolic stability: RLM CL (ul/min/mg), RLMs, mean and SD, three measurements
# [12] = peptide 1.33E+02 uM, slope of proteolytic substrate cleavage over time
structure (smiles),measurement,setting,value
O=C1CCSCc2cccc(n2)CSCCNC(=O)C2CN(C(=O)c3ccc(Cl)s3)CCN2C(=O)[C@H](CO)N1 (some centres unmarked) [compound 24],microsomal CLint,[1]; [4],75.7 µL/min/mg
same,microsomal CLint,[1]; [5],76.9 µL/min/mg
same,microsomal CLint,[1]; [6],68.3 µL/min/mg
same,half-life,[1]; [7],18.3 min
same,half-life,[1]; [8],18 min
same,half-life,[1]; [9],20.3 min
same,half-life,[1]; [10],18.9 ± 1 min
same,microsomal CLint,[1]; [11],74 ± 4 µL/min/mg
same,PAMPA permeability: % permeability,[2],2.0 ± 1.7%
same,Papp at 50 μM,[2],0.049 ×10⁻⁶ cm/s
same,Permeability% Average,[2],2.0%
same,Permeability% R1,[2],0.0459%
same,Permeability% R3,[2],3.39%
same,"SGF stability, Residual peptide Average",porcine pepsin,99.25
same,"SGF stability, Residual peptide",porcine pepsin,102.40 and 99.33 and 96.01
same,remaining at 8 h,porcine pepsin,99 ± 3%
same,"Rat alpha thrombin inhibition, slope normalized to DMSO",rat α-thrombin; [12],3.2 and 2.1 and 2.4
same,"Rat alpha thrombin inhibition, slope normalized to DMSO",rat α-thrombin; peptide 1.67E+01 uM,12.6 and 11.9 and 11.7
same,"Rat alpha thrombin inhibition, slope normalized to DMSO",rat α-thrombin; peptide 2.08E+00 uM,49.1 and 48.5 and 49.4
same,"Rat alpha thrombin inhibition, slope normalized to DMSO",rat α-thrombin; peptide 3.33E+01 uM,7.2 and 6.5 and 6.2
same,"Rat alpha thrombin inhibition, slope normalized to DMSO",rat α-thrombin; peptide 4.17E+00 uM,33.5 and 33.2 and 33.1
same,"Rat alpha thrombin inhibition, slope normalized to DMSO",rat α-thrombin; peptide 6.67E+01 uM,4.2 and 3.4 and 3.2
same,"Rat alpha thrombin inhibition, slope normalized to DMSO",rat α-thrombin; peptide 8.33E+00 uM,18.9 and 18.7 and 17.7
same,remaining at 8 h,[3],95 ± 6%
same,"SIF stability, Residual peptide Average",porcine pancreatin,94.64
same,"SIF stability, Residual peptide",porcine pancreatin,97.98 and 88.07 and 97.88
same,"Human alpha thrombin inhibition, slope normalized to DMSO",human α-thrombin; peptide 1.02E-03 uM,95.9 and 98.2 and 97.4
same,"Human alpha thrombin inhibition, slope normalized to DMSO",human α-thrombin; peptide 1.04E+00 uM,81.9 and 85.8 and 83.3
same,"Human alpha thrombin inhibition, slope normalized to DMSO",human α-thrombin; peptide 1.27E-04 uM,100.0
same,"Human alpha thrombin inhibition, slope normalized to DMSO",human α-thrombin; peptide 1.30E-01 uM,95.8 and 97.8
same,"Human alpha thrombin inhibition, slope normalized to DMSO",human α-thrombin; [12],5.8 and 7.8 and 9.3
same,"Human alpha thrombin inhibition, slope normalized to DMSO",human α-thrombin; peptide 1.63E-02 uM,98.1 and 95.1
same,"Human alpha thrombin inhibition, slope normalized to DMSO",human α-thrombin; peptide 1.67E+01 uM,24.2 and 34.4 and 34.5
same,"Human alpha thrombin inhibition, slope normalized to DMSO",human α-thrombin; peptide 2.03E-03 uM,107.0
same,"Human alpha thrombin inhibition, slope normalized to DMSO",human α-thrombin; peptide 2.08E+00 uM,75.9 and 67.7 and 77.5
same,"Human alpha thrombin inhibition, slope normalized to DMSO",human α-thrombin; peptide 2.54E-04 uM,106.8 and 94.5 and 91.2
same,"Human alpha thrombin inhibition, slope normalized to DMSO",human α-thrombin; peptide 2.60E-01 uM,93.5 and 89.6 and 97.8
same,"Human alpha thrombin inhibition, slope normalized to DMSO",human α-thrombin; peptide 3.18E-05 uM,101.5 and 97.9 and 106.2
same,"Human alpha thrombin inhibition, slope normalized to DMSO",human α-thrombin; peptide 3.26E-02 uM,103.3 and 97.7 and 104.2
same,"Human alpha thrombin inhibition, slope normalized to DMSO",human α-thrombin; peptide 3.33E+01 uM,16.8 and 22.5 and 20.8
same,"Human alpha thrombin inhibition, slope normalized to DMSO",human α-thrombin; peptide 4.07E-03 uM,97.2 and 91.1
same,"Human alpha thrombin inhibition, slope normalized to DMSO",human α-thrombin; peptide 4.17E+00 uM,54.3 and 66.2 and 66.1
same,"Human alpha thrombin inhibition, slope normalized to DMSO",human α-thrombin; peptide 5.09E-04 uM,94.9 and 97.9
same,"Human alpha thrombin inhibition, slope normalized to DMSO",human α-thrombin; peptide 5.21E-01 uM,90.1 and 82.7 and 89.7
same,"Human alpha thrombin inhibition, slope normalized to DMSO",human α-thrombin; peptide 6.36E-05 uM,101.8 and 98.6 and 104.2
same,"Human alpha thrombin inhibition, slope normalized to DMSO",human α-thrombin; peptide 6.51E-02 uM,97.4 and 97.6
same,"Human alpha thrombin inhibition, slope normalized to DMSO",human α-thrombin; peptide 6.67E+01 uM,12.2 and 13.3 and 13.7
same,"Human alpha thrombin inhibition, slope normalized to DMSO",human α-thrombin; peptide 8.14E-03 uM,97.0 and 98.1 and 103.6
same,"Human alpha thrombin inhibition, slope normalized to DMSO",human α-thrombin; peptide 8.33E+00 uM,51.4 and 50.3 and 44.5
O=C1CCSCc2ccc(cc2)CSCCNC(=O)[C@H](CNC(=O)c2ccc(Cl)s2)NC(=O)[C@H](Cc2ccccn2)N1 [compound 21],microsomal CLint,[1]; [4],102 µL/min/mg
same,microsomal CLint,[1]; [5],60.2 µL/min/mg
same,microsomal CLint,[1]; [6],85 µL/min/mg
same,half-life,[1]; [7],13.6 min
same,half-life,[1]; [8],23 min
same,half-life,[1]; [9],16.3 min
same,half-life,[1]; [10],17.6 ± 4 min
same,microsomal CLint,[1]; [11],82 ± 17 µL/min/mg
same,PAMPA permeability: % permeability,[2],17 ± 5%
same,Papp at 50 μM,[2],1.2 ×10⁻⁶ cm/s
same,Permeability% Average,[2],17.0%
same,Permeability% R1,[2],13.02%
same,Permeability% R3,[2],21.96%
same,"SGF stability, Residual peptide Average",porcine pepsin,96.77
same,"SGF stability, Residual peptide",porcine pepsin,95.02 and 96.82 and 98.46
same,remaining at 8 h,porcine pepsin,97 ± 2%
same,"Rat alpha thrombin inhibition, slope normalized to DMSO",rat α-thrombin; [12],2.7 and 0.9 and 1.3
same,"Rat alpha thrombin inhibition, slope normalized to DMSO",rat α-thrombin; peptide 1.67E+01 uM,3.2 and 2.7 and 2.4
same,"Rat alpha thrombin inhibition, slope normalized to DMSO",rat α-thrombin; peptide 2.08E+00 uM,15.0 and 14.2 (2×)
same,"Rat alpha thrombin inhibition, slope normalized to DMSO",rat α-thrombin; peptide 3.33E+01 uM,3.0 and 2.9 and 1.6
same,"Rat alpha thrombin inhibition, slope normalized to DMSO",rat α-thrombin; peptide 4.17E+00 uM,8.4 and 7.9 and 15.6
same,"Rat alpha thrombin inhibition, slope normalized to DMSO",rat α-thrombin; peptide 6.67E+01 uM,2.7 and 2.1 and 0.8
same,"Rat alpha thrombin inhibition, slope normalized to DMSO",rat α-thrombin; peptide 8.33E+00 uM,4.8 and 3.7 and 3.3
same,remaining at 8 h,[3],73 ± 14%
same,"SIF stability, Residual peptide Average",porcine pancreatin,72.44
same,"SIF stability, Residual peptide",porcine pancreatin,71.05 and 59.57 and 86.70
same,"Human alpha thrombin inhibition, slope normalized to DMSO",human α-thrombin; peptide 1.02E-03 uM,103.5 and 98.1 and 102.6
same,"Human alpha thrombin inhibition, slope normalized to DMSO",human α-thrombin; peptide 1.04E+00 uM,51.0 and 46.3 and 53.8
same,"Human alpha thrombin inhibition, slope normalized to DMSO",human α-thrombin; peptide 1.27E-04 uM,101.6 (2×) and 101.3
same,"Human alpha thrombin inhibition, slope normalized to DMSO",human α-thrombin; peptide 1.30E-01 uM,84.8 and 85.3 and 87.8
same,"Human alpha thrombin inhibition, slope normalized to DMSO",human α-thrombin; [12],2.9 and 4.3 and 7.1
same,"Human alpha thrombin inhibition, slope normalized to DMSO",human α-thrombin; peptide 1.63E-02 uM,94.6 and 91.7 and 97.3
same,"Human alpha thrombin inhibition, slope normalized to DMSO",human α-thrombin; peptide 1.67E+01 uM,6.9 and 8.0 and 8.2
same,"Human alpha thrombin inhibition, slope normalized to DMSO",human α-thrombin; peptide 2.03E-03 uM,83.6 and 95.2 and 99.1
same,"Human alpha thrombin inhibition, slope normalized to DMSO",human α-thrombin; peptide 2.08E+00 uM,39.4 and 34.7 and 41.2
same,"Human alpha thrombin inhibition, slope normalized to DMSO",human α-thrombin; peptide 2.54E-04 uM,100.6 and 99.2 and 101.0
same,"Human alpha thrombin inhibition, slope normalized to DMSO",human α-thrombin; peptide 2.60E-01 uM,69.7 and 83.0 and 22.1
same,"Human alpha thrombin inhibition, slope normalized to DMSO",human α-thrombin; peptide 3.18E-05 uM,102.2 and 99.2 and 102.0
same,"Human alpha thrombin inhibition, slope normalized to DMSO",human α-thrombin; peptide 3.26E-02 uM,94.2 and 94.0 and 90.4
same,"Human alpha thrombin inhibition, slope normalized to DMSO",human α-thrombin; peptide 3.33E+01 uM,5.8 (2×) and 6.2
same,"Human alpha thrombin inhibition, slope normalized to DMSO",human α-thrombin; peptide 4.07E-03 uM,90.8 and 94.4 and 95.3
same,"Human alpha thrombin inhibition, slope normalized to DMSO",human α-thrombin; peptide 4.17E+00 uM,22.8 and 22.7 and 20.6
same,"Human alpha thrombin inhibition, slope normalized to DMSO",human α-thrombin; peptide 5.09E-04 uM,101.7 and 100.4 and 99.5
same,"Human alpha thrombin inhibition, slope normalized to DMSO",human α-thrombin; peptide 5.21E-01 uM,67.4 and 67.9 and 63.6
same,"Human alpha thrombin inhibition, slope normalized to DMSO",human α-thrombin; peptide 6.36E-05 uM,101.4 and 100.0 and 102.5
same,"Human alpha thrombin inhibition, slope normalized to DMSO",human α-thrombin; peptide 6.51E-02 uM,98.0 and 95.1 and 90.8
same,"Human alpha thrombin inhibition, slope normalized to DMSO",human α-thrombin; peptide 6.67E+01 uM,5.7 and 4.5 and 9.4
same,"Human alpha thrombin inhibition, slope normalized to DMSO",human α-thrombin; peptide 8.14E-03 uM,81.7 and 101.4 and 94.1
same,"Human alpha thrombin inhibition, slope normalized to DMSO",human α-thrombin; peptide 8.33E+00 uM,13.3 and 14.1 and 15.9

# Source: article PMC11062899, “De novo development of small cyclic peptides that are orally bioavailable” (Nature Chemical Biology, 2023)
